Measured values reported in the supplement of paper PMC10307832.

The cell lines below were run with O=c1ncccn1[C@@H]1O[C@H](CO)[C@@H](O)[C@H]1O [Zebularine] + COc1cc2c(Oc3ccc(NC(=O)C4(C(=O)Nc5ccc(F)cc5)CC4)cc3F)ccnc2cc1OCCCN1CCOCC1 [Foretinib] (partner 0.25 µM) (assay: relative viability (nuclei count vs DMSO), 5 days (fraction); higher = more cells survive). Conditions: first compound 1 µM.
Method in brief: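 Values are medians from duplicate plates. Each reflects relative viability, defined as the nuclei count of treated wells over that of vehicle wells. Lung cancer cell lines in 1536-well plates were pin-tool dosed one day after seeding with one drug alone or with a fixed anchor-drug dose plus five library-drug doses (not always all listed) in √10 steps, then fixed, stained and imaged at 4× after 5 days.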

With A549 as the cell line, how does the relative viability read?
Its relative viability is 0.898.

Which relative viability does the source give for SW 900 here?
Its relative viability is 1.28.

Which relative viability does the source give for NCI-H661 here?
The relative viability was 0.989.

For NCI-H1299, which relative viability is on record?
Its relative viability is 1.12.

How did the relative viability turn out when NCI-H1563 was run?
Its relative viability is 0.915.

ABC-1 was tested. Which relative viability did it give?
Its relative viability is 1.16.

For NCI-H358, which relative viability is on record?
The relative viability was 0.723.

How did the relative viability turn out when NCI-H650 was run?
The relative viability was 1.02.

Same assay, conditions: first compound 3.162 µM

NCI-H2342 was tested. Which relative viability did it give?
Its relative viability is 1.07.

NCI-H1623 was tested. Which relative viability did it give?
Its relative viability is 0.733.

For NCI-H727, which relative viability is on record?
Its relative viability is 0.85.

For NCI-H1650, which relative viability is on record?
Its relative viability is 1.02.

EBC-1 was tested. Which relative viability did it give?
Its relative viability is 0.105.

For NCI-H1703, which relative viability is on record?
Its relative viability is 0.285.

NCI-H1993 was tested. Which relative viability did it give?
Its relative viability is 0.697.

Which relative viability does the source give for SW 1573 here?
The relative viability was 0.767.

NCI-H838 was tested. Which relative viability did it give?
The relative viability was 1.03.

LCLC-103H was tested. Which relative viability did it give?
The relative viability was 0.861.

How did the relative viability turn out when NCI-H520 was run?
The relative viability was 0.742.

Which relative viability does the source give for NCI-H2126 here?
Its relative viability is 1.09.

With EMC-BAC-2 as the cell line, how does the relative viability read?
Its relative viability is 1.02.

NCI-H2085 was tested. Which relative viability did it give?
Its relative viability is 1.06.

How did the relative viability turn out when Calu-6 was run?
The relative viability was 0.84.

For HCC-366, which relative viability is on record?
Its relative viability is 0.922.

For NCI-H1666, which relative viability is on record?
Its relative viability is 0.919.

Which relative viability does the source give for NCI-H596 here?
Its relative viability is 0.926.

With LK-2 as the cell line, how does the relative viability read?
The relative viability was 1.08.

For NCI-H2087, which relative viability is on record?
Its relative viability is 1.04.

For SK-MES-1, which relative viability is on record?
Its relative viability is 0.828.

How did the relative viability turn out when H3255 was run?
Its relative viability is 0.98.

For IA-LM, which relative viability is on record?
The relative viability was 1.14.

Which relative viability does the source give for A549 here?
The relative viability was 0.996.

How did the relative viability turn out when SW 900 was run?
The relative viability was 0.633.

With NCI-H661 as the cell line, how does the relative viability read?
The relative viability was 1.04.

Which relative viability does the source give for NCI-H1299 here?
The relative viability was 1.05.

For NCI-H1563, which relative viability is on record?
Its relative viability is 0.952.

How did the relative viability turn out when ABC-1 was run?
The relative viability was 1.11.

How did the relative viability turn out when NCI-H358 was run?
The relative viability was 0.602.

NCI-H650 was tested. Which relative viability did it give?
The relative viability was 0.934.

Same assay, conditions: first compound 10 µM

With NCI-H2342 as the cell line, how does the relative viability read?
Its relative viability is 0.802.

With NCI-H1623 as the cell line, how does the relative viability read?
The relative viability was 0.723.

NCI-H727 was tested. Which relative viability did it give?
The relative viability was 0.769.

For NCI-H1650, which relative viability is on record?
Its relative viability is 0.905.

For EBC-1, which relative viability is on record?
Its relative viability is 0.0888.

For NCI-H1993, which relative viability is on record?
The relative viability was 0.718.

SW 1573 was tested. Which relative viability did it give?
The relative viability was 0.802.

NCI-H838 was tested. Which relative viability did it give?
The relative viability was 0.705.

Which relative viability does the source give for LCLC-103H here?
The relative viability was 0.456.

NCI-H520 was tested. Which relative viability did it give?
The relative viability was 0.419.

With NCI-H2126 as the cell line, how does the relative viability read?
Its relative viability is 0.97.

How did the relative viability turn out when EMC-BAC-2 was run?
Its relative viability is 0.856.

How did the relative viability turn out when NCI-H2085 was run?
The relative viability was 0.785.

Calu-6 was tested. Which relative viability did it give?
Its relative viability is 0.702.

HCC-366 was tested. Which relative viability did it give?
Its relative viability is 0.797.

With NCI-H1666 as the cell line, how does the relative viability read?
Its relative viability is 0.805.

With NCI-H596 as the cell line, how does the relative viability read?
The relative viability was 0.559.

With LK-2 as the cell line, how does the relative viability read?
The relative viability was 0.529.

Which relative viability does the source give for NCI-H2087 here?
Its relative viability is 0.782.

For SK-MES-1, which relative viability is on record?
The relative viability was 0.794.

Which relative viability does the source give for H3255 here?
The relative viability was 0.766.

With A549 as the cell line, how does the relative viability read?
Its relative viability is 0.743.

For SW 900, which relative viability is on record?
The relative viability was 0.545.

How did the relative viability turn out when NCI-H661 was run?
Its relative viability is 0.991.

With NCI-H1299 as the cell line, how does the relative viability read?
The relative viability was 0.947.

How did the relative viability turn out when NCI-H1563 was run?
Its relative viability is 0.922.

Which relative viability does the source give for ABC-1 here?
The relative viability was 0.681.

NCI-H358 was tested. Which relative viability did it give?
The relative viability was 0.476.

Which relative viability does the source give for NCI-H650 here?
The relative viability was 0.824.

Same assay, conditions: first compound 31.62 µM

How did the relative viability turn out when NCI-H2342 was run?
Its relative viability is 0.953.

How did the relative viability turn out when NCI-H1623 was run?
The relative viability was 0.791.

For NCI-H727, which relative viability is on record?
Its relative viability is 1.03.

Which relative viability does the source give for NCI-H1650 here?
Its relative viability is 1.46.

Which relative viability does the source give for EBC-1 here?
Its relative viability is 0.0884.

For NCI-H1703, which relative viability is on record?
Its relative viability is 0.35.

NCI-H1993 was tested. Which relative viability did it give?
Its relative viability is 0.753.

For SW 1573, which relative viability is on record?
The relative viability was 0.999.

For NCI-H838, which relative viability is on record?
Its relative viability is 0.698.

LCLC-103H was tested. Which relative viability did it give?
Its relative viability is 0.78.

With NCI-H520 as the cell line, how does the relative viability read?
Its relative viability is 0.395.

Which relative viability does the source give for NCI-H2126 here?
Its relative viability is 1.06.

For EMC-BAC-2, which relative viability is on record?
Its relative viability is 1.04.

Which relative viability does the source give for NCI-H2085 here?
The relative viability was 0.833.

With Calu-6 as the cell line, how does the relative viability read?
Its relative viability is 0.798.

Which relative viability does the source give for HCC-366 here?
Its relative viability is 0.65.

Which relative viability does the source give for NCI-H1666 here?
The relative viability was 0.999.

For NCI-H596, which relative viability is on record?
Its relative viability is 0.891.

LK-2 was tested. Which relative viability did it give?
Its relative viability is 0.756.

With NCI-H2087 as the cell line, how does the relative viability read?
Its relative viability is 0.791.

With SK-MES-1 as the cell line, how does the relative viability read?
Its relative viability is 0.742.

Which relative viability does the source give for H3255 here?
Its relative viability is 0.959.

With IA-LM as the cell line, how does the relative viability read?
The relative viability was 1.34.

With A549 as the cell line, how does the relative viability read?
The relative viability was 0.855.

SW 900 was tested. Which relative viability did it give?
The relative viability was 0.762.

With NCI-H661 as the cell line, how does the relative viability read?
The relative viability was 1.18.

For NCI-H1299, which relative viability is on record?
Its relative viability is 1.11.

For NCI-H1563, which relative viability is on record?
Its relative viability is 0.991.

With ABC-1 as the cell line, how does the relative viability read?
The relative viability was 0.783.

NCI-H358 was tested. Which relative viability did it give?
Its relative viability is 0.391.

NCI-H650 was tested. Which relative viability did it give?
Its relative viability is 0.447.

Same assay, conditions: first compound 100 µM

With NCI-H2342 as the cell line, how does the relative viability read?
The relative viability was 0.748.

For NCI-H1623, which relative viability is on record?
The relative viability was 0.484.

With NCI-H727 as the cell line, how does the relative viability read?
Its relative viability is 0.723.

With NCI-H1650 as the cell line, how does the relative viability read?
Its relative viability is 1.07.

EBC-1 was tested. Which relative viability did it give?
Its relative viability is 0.109.

NCI-H1703 was tested. Which relative viability did it give?
Its relative viability is 0.389.

Which relative viability does the source give for NCI-H1993 here?
The relative viability was 0.704.

With SW 1573 as the cell line, how does the relative viability read?
The relative viability was 0.885.

Which relative viability does the source give for NCI-H838 here?
Its relative viability is 0.322.

With LCLC-103H as the cell line, how does the relative viability read?
Its relative viability is 0.469.

Which relative viability does the source give for NCI-H520 here?
Its relative viability is 0.243.

How did the relative viability turn out when NCI-H2126 was run?
Its relative viability is 0.883.

Which relative viability does the source give for EMC-BAC-2 here?
Its relative viability is 1.03.

For NCI-H2085, which relative viability is on record?
Its relative viability is 0.503.

Calu-6 was tested. Which relative viability did it give?
The relative viability was 0.275.

How did the relative viability turn out when HCC-366 was run?
The relative viability was 0.163.

How did the relative viability turn out when NCI-H1666 was run?
The relative viability was 0.805.

With NCI-H596 as the cell line, how does the relative viability read?
Its relative viability is 0.602.

Which relative viability does the source give for LK-2 here?
Its relative viability is 0.403.

Which relative viability does the source give for NCI-H2087 here?
The relative viability was 0.284.

For SK-MES-1, which relative viability is on record?
Its relative viability is 0.337.

For H3255, which relative viability is on record?
The relative viability was 0.897.

Which relative viability does the source give for IA-LM here?
The relative viability was 0.877.

A549 was tested. Which relative viability did it give?
Its relative viability is 0.0887.

With SW 900 as the cell line, how does the relative viability read?
The relative viability was 0.498.

For NCI-H661, which relative viability is on record?
The relative viability was 1.02.

How did the relative viability turn out when NCI-H1299 was run?
The relative viability was 0.549.

For NCI-H1563, which relative viability is on record?
The relative viability was 0.898.

How did the relative viability turn out when ABC-1 was run?
Its relative viability is 0.473.

Which relative viability does the source give for NCI-H358 here?
The relative viability was 0.184.

How did the relative viability turn out when NCI-H650 was run?
Its relative viability is 0.258.
